The compounds below were run on human basophils (assay: HHB assay: inhibition of histamine release from human basophils). Settings: Anti-IgE stimulus, tested at 33 μM.
Type: cell-based
Text: The HHB assay quantitates active histamine release and its inhibition by drugs, from basophils of human blood. Thus, the assay provides evaluation of the compounds of formula I for treating the conditions or diseases as is the present invention. As described herein the assay includes modifications of the method described by R. P. Siroganian in "An Automated Continuous-Flow System for the Extraction and Fluorometric Analysis of Histamine," Anal. Biochem., 57, 383-394 (1974).
Seventy ml of blood are drawn from allergic donors (chosen on the basis of adequate histamine induced by a challenge), using standard venipuncture methods, into 10 ml Vacutainers with 0.08 ml/tube 15% EDTA in water as anticoagulant. The blood samples are placed briefly on a rotary mixer. All glassware contacting the blood is siliconized. The blood is aliquoted into three plastic 50 ml centrifuge tubes and the volume is noted. Hespan (hydroxy ethyl starch), 0.5 ml per 1.0 ml of blood, is added. The tubes are inverted several times to mix and are left undisturbed at room temperature until a sharp separation is observed between the settled red cells and the leukocyte and platelet-rich plasma. This usually occurs within 35-45 minutes.
The plasma fraction is pipetted off and placed into two clean plastic 50 ml centrifuge tubes. The tubes are centrifuged for 12 minutes at 4° C. in a a 100 ml volumetric flask and 0.5 ml DMSO is added. […] If the compound is in solution, distilled water is used to bring it up to 100 ml total volume. If the drug is not in solution, 0.2 ml 1N NaOH (or HCl) is added, and then distilled water is added to yield 100 ml total solution. Five ml of the stock solution is diluted (1:2) with 5 ml of two times concentrated HACM buffer to yield the stock working concentration of 150 μM. When added to the cells and stimulus, a final test concentration of 100 μM drug results (400 μl drug, 100 μcells and 100 μchallenge agent or vehicle). Further dilutions are made with HACM buffer for 33, 10, 3.3, 1.0 μM, etc.
Short ragweed and house dust extracts (Greer Laboratories, Inc.) are supplied as aqueous extracts in stock concentrations of 40,000 and 10,000 protein nitrogen units per milliliter (PNU/ml), respectively. Aqueous solutions of anti-IgE antisera (rabbit-raised antibody) are purchased from Dako via Accurate Chemicals. The tripeptide f-met-leu-phe (fmlp) from Vega Biochemicals is used. The aqueous solutions of ragweed, house dust, and anti-IgE are diluted 1:2 with two times concentrated HACM and then further diluted with HACM to yield final stock concentrations of 6000 PNU/ml for ragweed and house dust, and a 1:50 dilution for the anti-IgE antisera. […]
`COc1cc(OC(C)C)c(C(=O)Nc2nnn[nH]2)cc1Br` [Example 3, 5-Bromo-4-methoxy-2-(1-methylethoxy)-N-1H-tetrazol-5-ylbenzamide] showed an inhibition at 33 µM of 28%. In the case of `COc1ccc(C(=O)Nc2nnn[nH]2)c(OC(C)C)c1I` [Example 4, 3-Iodo-4-methoxy-2-(1-methylethoxy)-N-1H-tetrazol-5-ylbenzamide], the inhibition at 33 µM is reported as 73%. Compound `COc1ccc(C(=O)Nc2nnn[nH]2)c(OC(C)C)c1Br` [Example 2, 3-Bromo-4-methoxy-2-(1-methylethoxy)-N-1H-tetrazol-5-ylbenzamide] has an inhibition at 33 µM of 60%. Work on `COc1ccc(C(=O)Nc2nnn[nH]2)c(OC(C)C)c1` [Example 1, 4-Methoxy-2-(1-methylethoxy)-N-1H-tetrazol-5-ylbenzamide] yielded an inhibition at 33 µM of 41%.
